From publication PMC7602980 (Biomolecules, 2020)
Where “and” joins values, the source holds several entries; their conditions need not be identical. Equal entries are not always repeated. Each block holds one compound with its values, some of them ahead of it.

What was measured:
CaM = biological target: T1, CaM (Rattus norvegicus, UniProt P0DP29); test: NMR titration (15N-HSQC) of 15N-CaM with Cx43CL136-158 peptides; type: binding; details: result in words
T1 construct: made in house; host or cells: pAED4 vector
Procedure: (§4) All polypeptides were equilibrated in 1x phosphate-buffered saline (1x PBS) at pH 5.8 or KCl 100 mM, CaCl2 5 mM at pH 6.5 using NAP-5 columns (GE Healthcare, #17-0853-01, Chicago, MI, USA) by dialysis in Slide-A-Lyzer G2 Dialysis Cassettes, 2K MWCO (Thermo Scientific, #87717, Waltham, MA, USA).
(§5) NMR data were acquired at 7 °C or 25 °C using a 600 MHz Varian INOVA (Agilent Technologies, Santa Clara, CA, USA) or a 600 MHz Bruker Avance-III HD spectrometer (Bruker, Billerica, MA, USA) outfitted with a cryoprobe at the NMR Facility of the University of Nebraska Medical Center. […] NMR spectra were processed using NMRPipe (IBBR, Rockville, MD, USA) [46] and analyzed using NMRView (https://nmrfx.org) [47].
(§6) Data were acquired with 1024 complex points in the direct dimension and 128 complex points in the indirect dimension. Chemical shift variations were calculated according to the formula Δσ = √((ΔδHN)^2 + (ΔδN/5)^2) and plotted as a function of ligand concentration. Dissociation constants (KD) were calculated by nonlinear fitting of the titration curves using GraphPad Prism 7.0 (GraphPad Software, La Jolla, CA, USA) and averaging at least six curves.

[1] = Circular dichroism (far UV), secondary structure; type: physicochemical; details: for CD structure with TFE: 1× PBS pH 5.8, up to 25% TFE, result in words
Procedure: CD experiments were performed on a JASCO J-815 CD spectrometer at 7 °C in the far UV (260–190 nm) with a 0.1 mm path length quartz cell, using a bandwidth of 1 nm, an integration time of 1 s, and a scan rate of 50 nm/min. Each spectrum is the average of 5 scans. All spectra were corrected by subtracting the solvent spectrum acquired under identical conditions. The protein concentration for each sample was 200–500 μM in 1× PBS at pH 5.8. For CD data collection in presence of TFE, 10× PBS was used to keep the final sample at a constant buffer concentration corresponding to 1x PBS. All CD data were processed using the Spectra Analysis software of Jasco Manager Version 2 (Jasco, Easton, PA, USA).

Cx43 = test: Ionomycin treatment and Triton X-100 solubility assay, HeLa^Cx43 cells, Western blot; type: cell-based; details: 100 nM PMA, 1 μM ionomycin, 30 min; insoluble fraction
Description: (§1) Briefly, 80% confluent parental HeLa cells were transfected with Cx43 WT or ODDD mutations containing pD2529 (puromycin resistant) plasmid using Lipofectamine 2000 (Invitrogen, # 11668019) at a 1:1 (reagent:plasmid) ratio in OptiMem (Life Technologies, #31985070, Carlsbad, CA, USA) under antibiotic free conditions. After re-plating and once colonies were formed, Western blot and immunofluorescence were used to screen the clones (α-Cx43, Sigma #6219, 1:10,000, MilliporeSigma, St. Louis, MO, USA).
After reaching 100% confluency, HeLa^Cx43 cells seeded on 10-cm dishes were incubated in presence of 1 μM ionomycin (Sigma #I0634) for 2 min for equilibration and then either treated with 1 μM ionomycin only as control, or 1 μM ionomycin plus 20 mM Ca^2+, 100 nM PMA (Sigma, # P1585), or 20 mM Ca^2+/100 nM PMA and incubated for 30 min.
The Triton X-100 solubility assay was modified from a method described previously. […] Protein lysate content was quantified by the BCA assay and normalized. […] After analysis of the insoluble fraction by Western blot, quantification from three independent replicates was measured using the iBright Analysis Software (version 3.1.3, Thermo Scientific) and statistical analysis was performed in GraphPad Prism 8.0 (San Diego, CA, USA) using the Ordinary one way Anova calculation. p-values < 0.05 were considered statistically significant.

HeLa cells [2] = test: Scrape loading dye transfer, stably transfected HeLa cells; type: cell-based; details: cell layers past scrape; 100% confluent HeLa
Description: as §1
Cell communication was evaluated as previously described. Briefly, stably transfected HeLa cells described above were grown to 100% confluency. Media was replaced with pre-warmed dye transfer solution (0.25% Lucifer yellow CH (Life Technologies # L453) and 0.1% Texas Red 1 × 10^4 (Life Tech # D1863) in 1× PBS at 37 °C) and cells were immediately scrape-loaded with a fine edged micro-scalpel by three longitudinal scratches. After incubating at 37 °C for 4 min, cells were rinsed with 1× PBS and further incubated in antibiotic free media for 6 min. Dye spread was then stopped by washing the cells with 1× PBS containing 1 mM CaCl2 and 1 mM MgCl2. Cells were finally fixed, DAPI stained, mounted, and imaged.

HeLa cells [3] = test: In situ Triton X-100 extraction and immunofluorescence, stably transfected HeLa cells; type: cell-based; details: 1% Triton X-100 in situ extraction
Description: as §1
After reaching 100% confluency, cells seeded on glass coverslips were fixed in 4% paraformaldehyde (1× PBS, pH 7.4) and then blocked in 5% goat serum (1× TBS, 0.4% Triton X-100). Coverslips were then incubated with the appropriate primary antibody (α-Cx43, Sigma #6219, 1:200) diluted in blocking buffer overnight at 4 °C. Fluorescent secondary antibody (α-Rb Alexa Fluor 488, Cell Signaling #4412, 1:300) was then applied, followed by DAPI (100 ng/mL in 1× TBS). Coverslips were mounted on a drop of SlowFade anti-fade (Life Technologies, Carlsbad, CA, USA # S36972), sealed with clear nail polish, and imaged.
The in situ detergent extraction was previously described. […]

[4] = pH 5.8; ref [14]; cited from earlier work
Description: (§2) The CT plays a role in the trafficking, localization, and turnover of gap junction channels via numerous post-translational modifications and protein–protein interactions. The CT is also important for regulating junctional conductance and voltage sensitivity. […] Conversely, only a few protein partners have been identified to directly bind the CL. For example, in the ...

[5] = test system: Cx43 gap junction channels; details: peptide in patch pipette; ref [15]; cited from earlier work
Description: as §2

Cx43CT domain = details: ref [14]; cited from earlier work
Description: as §2

Cx43CT236-382 = test: NMR titration (15N-HSQC) of 15N-Cx43CT236-382 with CaM; type: binding, rat; details: Ca^+2 not present, 10 mM EGTA
Procedure: as §4, §5, §6

Src = test: In vitro kinase assay, Src phosphorylation of GST-Cx43CT236-382; type: biochemical; details: CaM ~90% saturation of Cx43CT; 4 h RT; Western blot Cx43 pY265; three independent experiments
Procedure: (§3) After incubation of 4 h at RT for Src, 6 h at 30 °C for ERK1, and 6 h at RT for ERK2, phosphorylation levels of the Cx43CT were detected by Western blot using Cx43 specific anti-phospho antibodies. Three independent experiments were performed and phosphorylation levels were quantified using the iBright Analysis Software and statistical analysis were performed in GraphPad Prism 8.0 using a Student’s t-test. p-values < 0.05 were considered statistically significant.

ERK2 = test: In vitro kinase assay, ERK2 phosphorylation of GST-Cx43CT236-382; type: biochemical; details: CaM ~90% saturation of Cx43CT; 6 h RT; Western blot pS279/S282; three independent experiments
Procedure: as §3

ERK1 = test: In vitro kinase assay, ERK1 phosphorylation of GST-Cx43CT236-382; type: biochemical; details: CaM ~90% saturation of Cx43CT; 6 h 30 °C; Western blot pS279/S282; three independent experiments; Student's t-test
Procedure: as §3

KD compared with control (WT) (CaM): little-to-no difference in KD
Compound: CC[C@H](C)[C@H](NC(=O)CNC(=O)[C@H](Cc1ccc(O)cc1)NC(=O)[C@@H](N)CCCCN)C(=O)N[C@@H](CCC(=O)O)C(=O)N[C@@H](CCC(=O)O)C(=O)N[C@@H](Cc1c[nH]cn1)C(=O)NCC(=O)N[C@@H](CCCCN)C(=O)N[C@H](C(=O)N[C@@H](CCCCN)C(=O)N[C@@H](CCSC)C(=O)N[C@@H](CCC(N)=O)C(=O)NCC(=O)NCC(=O)N[C@@H](CC(C)C)C(=O)N[C@@H](CC(C)C)C(=O)N[C@@H](CCCNC(=N)N)C(=O)N[C@H](C(=O)N[C@@H](Cc1ccc(O)cc1)C(=O)N[C@H](C(=O)N[C@H](C(=O)N[C@@H](CO)C(=O)O)[C@@H](C)CC)[C@@H](C)CC)[C@@H](C)O)C(C)C [R148Q]

Compound: Cx43CL100-155: recombinant rat full-length Cx43CL domain, residues M100-Y155 (MRKEEKLNKKEEELKVAQTDGVNVEMHLKQIEIKKFKYGIEEHGKVKMRGGLLRTY; cytoplasmic loop; UniProt P08050 100-155, looked up, fragment)
CD structure with TFE [1]: able to form α-helical structure
α-helical content ([1]; 1× PBS, pH 5.8, 7 °C, 200–500 μM, estimated by comparing previous data): less than 5%

KD compared with control (WT) (CaM): little-to-no difference in KD
Compound: CC[C@H](C)[C@H](NC(=O)CNC(=O)[C@H](Cc1ccc(O)cc1)NC(=O)[C@@H](N)CCCCN)C(=O)N[C@@H](CCC(=O)O)C(=O)N[C@@H](CCC(=O)O)C(=O)N[C@@H](Cc1c[nH]cn1)C(=O)NCC(=O)N[C@@H](CCCCN)C(=O)N[C@H](C(=O)N[C@@H](CCCCN)C(=O)N[C@@H](CCSC)C(=O)N[C@@H](CCCNC(=N)N)C(=O)NCC(=O)NCC(=O)N[C@@H](CC(C)C)C(=O)N[C@@H](CC(C)C)C(=O)N[C@@H](CCCNC(=N)N)C(=O)N[C@@H](C)C(=O)N[C@@H](Cc1ccc(O)cc1)C(=O)N[C@H](C(=O)N[C@H](C(=O)N[C@@H](CO)C(=O)O)[C@@H](C)CC)[C@@H](C)CC)C(C)C [T154A]

Compound: CCCCCCCCCCCCCC(=O)O[C@@H]1[C@@H](C)[C@@]2(O)[C@@H](C=C(CO)C[C@]3(O)C(=O)C(C)=C[C@@H]23)[C@@H]2C(C)(C)[C@]12OC(C)=O [PMA]
Y265 phosphorylation (Cx43): increasing Y265 phosphorylation
level of total Cx43 at the plaque (Cx43): decreased the level of total Cx43 at the plaque

Compound: Cx43 WT: Cx43 wild type stably expressed in HeLa cells
Lucifer Yellow dye transfer (HeLa cells [2]): greater than a fifth-order dye transfer
Triton X-100 solubility / localization (HeLa cells [3]): only a small amount of Cx43 washed away in the presence of Triton X-100

Compound: Cx43L2: synthetic peptide, Cx43CL residues D119-K144
CD structure with TFE [1]: clearly adopted an α-helical structure
secondary structure [4]: two short α-helices
effect on single channel behaviour [5]: interfered with the occurrence of the residual state and prolonged open time
affinity for the CT at pH 5.8 compared with pH 7.4 (Cx43CT domain): greater than at pH 7.4

KD compared with control (WT) (CaM): little-to-no difference in KD
Compound: CC[C@H](C)[C@H](NC(=O)CNC(=O)[C@H](Cc1ccc(O)cc1)NC(=O)[C@@H](N)CCCCN)C(=O)N[C@@H](CCC(=O)O)C(=O)N[C@@H](CCC(=O)O)C(=O)N[C@@H](Cc1c[nH]cn1)C(=O)NCC(=O)N[C@@H](CCCCN)C(=O)N[C@H](C(=O)N[C@@H](CCCCN)C(=O)N[C@H](C(=O)N[C@@H](CCCNC(=N)N)C(=O)NCC(=O)NCC(=O)N[C@@H](CC(C)C)C(=O)N[C@@H](CC(C)C)C(=O)N[C@@H](CCCNC(=N)N)C(=O)N[C@H](C(=O)N[C@@H](Cc1ccc(O)cc1)C(=O)N[C@H](C(=O)N[C@H](C(=O)N[C@@H](CO)C(=O)O)[C@@H](C)CC)[C@@H](C)CC)[C@@H](C)O)[C@@H](C)O)C(C)C [M147T]

Compound: Cx43L1: synthetic peptide, Cx43CL residues M100-A116 (MRKEEKLNKKEEELKVA; UniProt P08050 100-116, looked up, fragment)
CD structure with TFE [1]: at 25% of TFE, the spectrum was still typical of a predominantly random coiled protein

inhibition of Src phosphorylation of Cx43CT (Src): ~ 90% and 90%
inhibition of ERK2 phosphorylation of Cx43CT (ERK2): ~ 30% and 30%
effect on ERK1 phosphorylation of Cx43CT (ERK1): not statistically significant
Compound: calmodulin [CaM]
interaction of CaM with Cx43CT without Ca^2+ (Cx43CT236-382): the interaction is lost when Ca^+2 is not present

Compound: Cx43CL100-158: recombinant rat Cx43CL construct, residues M100-S158 (MRKEEKLNKKEEELKVAQTDGVNVEMHLKQIEIKKFKYGIEEHGKVKMRGGLLRTYIIS; cytoplasmic loop; UniProt P08050 100-158, looked up, fragment)
CD structure with TFE [1]: did not elicit the same degree of α-helical content as Cx43CL100-155
